The record followed here is a melting point compilation (Tetko et al.; mined from patent text by program, amines drawn as free bases though some values may be those of a salt).

Each structure is given as a SMILES string.

By melting point is commonly meant the temperature, or range, at which the solid turns liquid. `CSc1cc2c(cc1C(F)(F)F)N(C(=O)Nc1cccc(C(=O)NN3CCC(N(C)C)C3)c1)CC2` (stereo not drawn) came in with a melting point of 114 to 116 °C. With `CN(C)CC(=O)OCC1CC(c2ccc(-c3ccc(N4C[C@H](Cn5ccnn5)OC4=O)cc3F)cn2)=NO1` (stereo partly drawn), the melting point is 185 to 198 °C. For the molecule `CC(C)c1nc2cc(NC(=O)c3c(C(=O)N4CC(F)C4)cnn3C)ccn2n1`, the melting point was 226 to 227 °C. Molecule `O=c1[nH]nc2n1-c1ccc(Cl)cc1C(c1ccccc1F)CC2` (stereo not drawn) returned a melting point of 236 to 238 °C.

`O=C(c1cc2c(cn1)[nH]c1ccccc12)n1ccnc1` came in with a melting point above 280 °C. `CCCC1(CC(=O)O)OCC(=O)c2c1[nH]c1ccccc21` (stereo not drawn) came in with a melting point of 206 to 208 °C. The molecule `CNC(=O)[C@@H](C[C@H](O)[C@H](CC1CCCCC1)NC(=O)[C@H](Cc1cscn1)NC(=O)OC(C)(C)C)C(C)C` gave a melting point of 183 to 185 °C. On to `N#C[C@H]1CC(F)(F)CN1C(=O)CNC1(CO)CCC2(CCOCC2)CC1`, for which the melting point stood at 128 °C.

On to `O=C(O)Cc1ccc(OCc2ccccc2)cc1OCc1ccccc1`, for which the melting point was found to be 139 °C. `O=C(c1ccc(Cl)cc1)c1ccc2c(c1)C(c1cccc(Cl)c1)SCc1nnnn1-2` (stereo not drawn) came in with a melting point of 212 °C.

The molecule `OCCCn1c(=S)[nH]c2c(OCc3ccccc3)cccc21` registered a melting point of 124 to 125 °C. `COCCN1CCN(c2ccc(N3C[C@H](CNC(C)=O)OC3=O)cc2F)CC1` had a melting point of 144 to 146 °C.

Take `FC(F)(F)C1(C(F)(F)F)c2ccccc2Oc2ccccc21`: the melting point was in the range of 74 to 75 °C. With `Cc1cccc(-c2ccnc3ccnn23)n1` the figure was 126 to 127 °C; with `COC(=O)C(C)(C)C(Cc1ccc(OC)cc1)N(C)S(=O)(=O)c1ccc(C)cc1` (stereo not drawn), 132 to 134 °C; with `CSc1ccc(C=C2C(C)=C(CC(=O)O)c3cc(F)c(F)cc32)cc1`, 181 to 182 °C. `CC(C)(C(=O)c1ccc(Cl)cc1)n1ncn(-c2ccc(N3CCN(Cc4ccccc4)CC3)cc2)c1=O` displayed a melting point of 150 °C.

In the case of `CCOC(=O)c1[nH]cc2c1NC1=C(C(=O)CCC1)C2c1ccc(Sc2nc3cccnc3[nH]2)o1` (stereo not drawn), the melting point fell in the range of 190 to 202 °C. On to `CC[C@H]1C(=O)N(S(=O)(=O)c2ccc3ccccc3c2)[C@H]2CCN(C(=O)OCc3ccccc3)[C@H]12` (relative stereo), for which the melting point amounted to 156 °C. On to `CCCC1CCC(c2ccc(-c3cc(F)c(F)c(F)c3C=O)cc2)CC1` (stereo not drawn), for which the melting point stood at 62 °C. Molecule `CCc1cnn(CC(=O)O)c1OCCn1cc(C(=O)NCc2ccc(C(F)(F)F)cc2)c(OC(C)C)n1` yielded a melting point of 183 to 184 °C. For `OC1CSC(Oc2cc(-c3cccnc3)ccc2F)C(O)C1O` (stereo not drawn), the melting point is 100 °C. `CNC(=O)c1ccc(C(=O)O)cc1` displayed a melting point of 270 °C. `CCn1cc(C(=O)O)c(=O)c2cc(F)c(C)c(F)c21` came in with a melting point of 245 to 248 °C. The molecule `CC(=O)c1ccc(C2=CCC(C)CC2)cc1` (stereo not drawn) gave a melting point of 50 to 52 °C.

In the case of `CCOC(=O)C1=C(C)Nc2ccnc(OC(C)C)c2C1c1cccc2nonc12` (stereo not drawn), the melting point lay in the range of 134 to 136 °C. Consider `CC1(C)OC(c2ccc(S(C)(=O)=O)cc2)=C(c2cccc([N+](=O)[O-])c2)C1=O`, for which the melting point fell in the range of 158 to 159 °C. `CC1(C)C=Cc2cc(C(=O)NCCO)ccc2O1` gave a melting point of 60 to 70 °C. Take `COC(=O)c1ccc(OCc2ccc(Cl)cc2)cc1O`: the melting point fell in the range of 119 to 121 °C.

Regarding `Cc1oc(-c2ccco2)nc1COc1ccc(COc2nn(Cc3ccccc3)cc2C(=O)O)cn1`, the melting point was 151 to 152 °C. To `CCCNC(=O)NS(=O)(=O)c1cc2c(cc1OC)OCC(NC(=O)c1cc(Cl)ccc1OC)C2` (stereo not drawn) belongs 203 to 205 °C; to `CCOc1cccc2cc(C(=O)NNS(=O)(=O)c3ccccc3)oc12`, 223 to 224 °C. Consider `CN(C(=O)c1cccc(S(=O)(=O)N(C)c2ccc(Br)cc2)c1)c1ccc(Cl)cc1F`, for which the melting point was 127 to 128 °C. Regarding `O=C(c1ccco1)N1CCN(c2nc3c(c(-c4ccc(F)cc4)n2)CCC3)CC1`, the melting point is 124 to 125 °C. Turning to `CN1C(=O)CCC2(C)c3ccc(S(=O)(=O)c4ccccc4)cc3CCC12` (single isomer, unassigned; (+)), the melting point is 165 to 167 °C.

The molecule `N#Cc1ccc(-c2ccc(S(=O)(=O)N(CCO)CCO)cc2)[nH]c1=O` gave a melting point of 226 to 228 °C.

For the molecule `C=C(Br)Cc1cccs1`, the melting point was 69 to 71 °C. `COc1ccc2[nH]c(SCc3ncc(C)c(N4CCOCC4)c3Cl)nc2c1` displayed a melting point of 162 to 164 °C. Consider `CC(NC1=Nc2ccccc2C(=O)N(C)C1)c1ccccc1` (stereo not drawn), for which the melting point is 150 to 151 °C.

The molecule `COc1cc(-c2nc(C)c(C(C)=NNC(N)=O)s2)cc(OC)c1OC` came in with a melting point of 240 to 242 °C. In the case of `CCOC(=O)c1cn(-c2ccc(F)cc2)c2cc(F)c(F)c(C)c2c1=O`, the melting point was 256 to 259 °C. With `COC1(c2cccc3[nH]ccc23)CCCNC1` (stereo not drawn), the melting point came to 212 °C. Regarding `Oc1ccc(Cn2cnc3c(-c4ccco4)ncnc32)cc1`, the melting point is 231 to 233 °C. `CCOC(=O)CCc1[nH]c2cccc3c2c1CC1C3CC(NC(=O)N(CC)CC)CN1C` (stereo not drawn) registered a melting point of 160 to 161 °C. `Fc1nc(NCc2ccccn2)c2nc[nH]c2n1`: the melting point was in the range of 217 to 220 °C. To `Cc1cccc(-n2c(-c3sc(NC(=O)c4ccccc4)nc3-c3ccccc3)nc3ccccc3c2=O)c1` belongs above 275 °C.

On to `COc1cc(OC)c(NC(=S)Nc2ccccc2)cc1O`, for which the melting point was 152 to 154 °C. In the case of `O=NN1CCN(c2ccc(Cl)cc2)C1=O`, the melting point was in the range of 154 to 156 °C.

`FC1(Cl)Oc2cc3nc(C(Cl)(Cl)Cl)[nH]c3cc2OC1(F)Cl` (stereo not drawn) had a melting point above 230 °C.

The molecule `CCCNC(=O)Nc1ccc2c(c1)NC(=O)C2(C)C` returned a melting point of 223 to 225 °C. With `Cc1ccc(C(=O)OC(C)c2nc3c(c(=O)n(C)c(=O)n3C)n2C)cn1` (stereo not drawn), the melting point was in the range of 165 to 180 °C. `CC(O)(c1nc2ccc(I)cc2c(=O)[nH]1)C(F)(F)F` (stereo not drawn): the melting point was in the range of 205 to 207 °C.

Take `Cc1ccccc1Oc1nnc(Cl)c(C)c1O`: the melting point fell in the range of 209 to 213 °C. In turn, `O=S(=O)(c1ccccc1)S(=O)(=O)c1ccccc1` returned a melting point of 142 to 144 °C.

Molecule `CNC(=O)NC(CCSC)C(N)=O` (racemic) returned a melting point of 156 to 157 °C.

`COCC1OC(n2cnc3c(NC4CCCC4)nc(Cl)nc32)C(O)C1O` (stereo not drawn) gave a melting point of 124 to 126 °C. With `CC(C)(Sc1ccc(-n2cncn2)nn1)C(O)(Cn1cncn1)c1ccc(F)cc1F` (single isomer, unassigned; (+)) the figure was 226 to 227 °C; with `CCCOc1ccccc1NC=C1C(=O)N(c2ccc(C(=O)O)cc2)N=C1C`, 260 °C; with `NC(=O)NCCNc1ccc(N)cc1Cl`, 160 °C.

`Cc1oc(-c2ccccc2)nc1CCc1nc(CCl)cs1`: the melting point lay within 89 to 90 °C. Turning to `Cc1ccc([N+](=O)[O-])cc1S(=O)(=O)N(C)C`, the melting point lay in the range of 72 to 74 °C. In turn, `CN(CCO)S(=O)(=O)c1cc([N+](=O)[O-])c(Cl)s1` displayed a melting point of 62 °C. `O=C(Oc1ccc(Cl)cc1)c1ncn2c1[C@@H]1CCCN1C(=O)c1c(Cl)cccc1-2`: the melting point lay within 241 to 242 °C. `CCCC(=O)C1=C(O)CC(c2c(C)c(C)c(C)c3c2OCC3)CC1=O` (stereo not drawn) yielded a melting point of 140 °C. `CC1CN(c2ccc(Cl)cc2)N=C1NCC(F)(F)F` (stereo not drawn): the melting point was in the range of 84 to 86 °C. `O=C1CCC2C=C(c3cccnc3)C(O)=CC2N1` (stereo not drawn) had a melting point of 298 °C. As for `O=S(=O)(Nc1ccc2c(OCc3ccc(Br)cc3F)cccc2c1)C(F)(F)F`, the melting point lay within 123 to 125 °C. `CCCCCCCCCCc1ccc(CNc2ccc(C(=O)O)cc2)cc1` had a melting point of 135 to 136 °C.

As for `Oc1nnc(-c2ccc(CN3CCCCCC3)s2)o1`, the melting point is 117 to 119 °C. With `Cc1c(=O)n(Cc2ccccc2)c(=O)n2cc(C(=O)NCc3ccccc3)sc12` the figure was 176 to 178 °C; with `CC(=O)OCC(N=O)C(C)(C)Cl` (stereo not drawn), 117 to 119 °C; with `CCOC(=O)C1=C(N)NC(C)=C(C(C)=O)C1c1cccc([N+](=O)[O-])c1` (stereo not drawn), 217 °C.

Molecule `COc1cc(OC)cc(N2CCN(C(=O)Nc3cc(C(C)O)c(C)nc3OC)CC2)c1` (stereo not drawn) gave a melting point of 124 to 126 °C.

`CCOc1cc(Cc2ccccn2)ccc1CCCOc1c(CC(=O)O)cccc1OC` yielded a melting point of 97.5 to 98.5 °C. Regarding `CON(Cc1ccc(F)c(F)c1)C(=O)C1=C(O)C(=O)N(C)C1`, the melting point was in the range of 146 to 147 °C. To `COc1cccc2c(N3CCN(C[C@H]4COc5ccc6nc(C)ccc6c5O4)CC3)coc12` belongs 56 °C; to `Nc1ncnc2c1c(C#CCO)nn2Cc1oc2ccccc2c(=O)c1-c1ccccc1`, 171 to 173 °C. The molecule `CC(C)(C(=O)O)c1cn2nc(CCCCN3CCN(C(c4ccccc4)c4ccccc4)CC3)ccc2n1` came in with a melting point of 108 to 110 °C. `O=c1c2ccccc2oc2cccnc12`: the melting point was 184 to 185 °C. `Fc1cccc(F)c1-c1ncc(Oc2cccc(Cl)c2)nn1` showed a melting point of 132 to 137 °C. For the molecule `CCC12CCC3c4ccc(OC)cc4C(C)CC3C1CCC21OCCO1` (stereo not drawn), the melting point was in the range of 130 to 134 °C. For the molecule `O=C1N(Cc2c[nH]c3ccccc23)CCCC12CCN(c1cnc3ccccc3n1)CC2`, the melting point lay in the range of 109 to 111 °C. `CC(=O)c1c(O)cccc1OCC(O)COc1ccccc1C` (stereo not drawn) returned a melting point of 101 to 102 °C. With `CCCC(=O)c1cnc2nc(C)c(OCC)cc2c1O` the figure was 240 to 241 °C; with `CNC(=O)n1nc(Oc2ccc([N+](=O)[O-])cc2C(F)(F)F)cc1C`, 142 to 144 °C.

`CCCCc1nc(O)cc(COC)n1`: the melting point lay within 96 to 98 °C.

`CC(C)c1ccc(-n2nc(C(F)(F)F)cc2-c2ccc(S(C)(=O)=O)cc2)cc1Cl` returned a melting point of 84 to 86 °C. Consider `Nc1nc(NC2Cc3ccccc3N(S(=O)(=O)c3ccc(Cl)cc3Cl)C2)c2cn[nH]c2n1` (stereo not drawn), for which the melting point lay within 153 to 163 °C.
